Measurements reported in US20030086928A1, “Compositions associated with complex formation and methods of use thereof” (priority 2000, published 2003).

What was measured:
[1] = test system: phospho (Ser133) CREB in D5 cells; assay: Ser133 phosphorylation of CREB in D5 cells (Western blot / immunofluorescence with antiserum 5322); format: cell-based
Protocol: (§1) D5 cells were grown on glass coverslips and stimulated with forskolin and 3-isobutyl-1-methylxanthine (IBMX) or 12-O-tetradecanoyl phorbol acetate (TPA) for 10 minutes. The cells were methanol-fixed at […] for 5 min followed by three 5 min washes in PBS. Cells were blocked for 30 min with 3% BSA in PBS and donkey serum diluted 1:50. Primary antibodies were diluted in 3% BSA/PBS to 1:2000 for the phospho-CREB specific antibody 5322 or 1:100 (3 μg/ml) for the KID/KIX specific antibody. The cells were incubated with the primary antibodies for 1 hr at RT, followed by 3 washes with PBS and a 1 hr incubation with Biotin-SP-conjugated Donkey anti rabbit IgG diluted 1:200 in 3% BSA/PBS. After 3 washes in PBS, Texas Red conjugated Streptavidin was added at 1:200 dilution in 3% BSA/PBS. After one hour incubation, cells were washed 3 times in PBS and mounted in 90% glycerol/PBS containing 1 mg/ml phenylenediamine.
In addition to cAMP, other stimuli such as the phorbol ester TPA can promote Ser133 phosphorylation of CREB; yet these stimuli are unable to induce target gene activation via CBP, reflecting either a block in CREB:CBP complex formation or in the subsequent recruitment of the transcriptional apparatus. […]

[2] = test system: T1, CREB:CBP complexes in D5 cells; assay: Immunofluorescence of CREB:CBP complexes in D5 cells with αKK antiserum; format: cell-based; details: 10 minutes
T1 construct: endogenous in cells; host or cells: D5 cells (NIH 3T3 with rat somatostatin gene)
T1 sequence (Q01147 whole entry): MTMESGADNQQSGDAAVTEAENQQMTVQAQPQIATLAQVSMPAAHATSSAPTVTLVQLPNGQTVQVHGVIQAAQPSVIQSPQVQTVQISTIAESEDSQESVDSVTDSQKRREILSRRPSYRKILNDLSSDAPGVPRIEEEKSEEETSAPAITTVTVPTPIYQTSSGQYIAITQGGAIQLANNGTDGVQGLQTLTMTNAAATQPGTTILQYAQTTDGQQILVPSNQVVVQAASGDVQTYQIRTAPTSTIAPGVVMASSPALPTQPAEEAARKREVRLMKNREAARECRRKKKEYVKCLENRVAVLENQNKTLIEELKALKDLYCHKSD
T1 sequence (P45481 2-2441 limits assumed, further chain): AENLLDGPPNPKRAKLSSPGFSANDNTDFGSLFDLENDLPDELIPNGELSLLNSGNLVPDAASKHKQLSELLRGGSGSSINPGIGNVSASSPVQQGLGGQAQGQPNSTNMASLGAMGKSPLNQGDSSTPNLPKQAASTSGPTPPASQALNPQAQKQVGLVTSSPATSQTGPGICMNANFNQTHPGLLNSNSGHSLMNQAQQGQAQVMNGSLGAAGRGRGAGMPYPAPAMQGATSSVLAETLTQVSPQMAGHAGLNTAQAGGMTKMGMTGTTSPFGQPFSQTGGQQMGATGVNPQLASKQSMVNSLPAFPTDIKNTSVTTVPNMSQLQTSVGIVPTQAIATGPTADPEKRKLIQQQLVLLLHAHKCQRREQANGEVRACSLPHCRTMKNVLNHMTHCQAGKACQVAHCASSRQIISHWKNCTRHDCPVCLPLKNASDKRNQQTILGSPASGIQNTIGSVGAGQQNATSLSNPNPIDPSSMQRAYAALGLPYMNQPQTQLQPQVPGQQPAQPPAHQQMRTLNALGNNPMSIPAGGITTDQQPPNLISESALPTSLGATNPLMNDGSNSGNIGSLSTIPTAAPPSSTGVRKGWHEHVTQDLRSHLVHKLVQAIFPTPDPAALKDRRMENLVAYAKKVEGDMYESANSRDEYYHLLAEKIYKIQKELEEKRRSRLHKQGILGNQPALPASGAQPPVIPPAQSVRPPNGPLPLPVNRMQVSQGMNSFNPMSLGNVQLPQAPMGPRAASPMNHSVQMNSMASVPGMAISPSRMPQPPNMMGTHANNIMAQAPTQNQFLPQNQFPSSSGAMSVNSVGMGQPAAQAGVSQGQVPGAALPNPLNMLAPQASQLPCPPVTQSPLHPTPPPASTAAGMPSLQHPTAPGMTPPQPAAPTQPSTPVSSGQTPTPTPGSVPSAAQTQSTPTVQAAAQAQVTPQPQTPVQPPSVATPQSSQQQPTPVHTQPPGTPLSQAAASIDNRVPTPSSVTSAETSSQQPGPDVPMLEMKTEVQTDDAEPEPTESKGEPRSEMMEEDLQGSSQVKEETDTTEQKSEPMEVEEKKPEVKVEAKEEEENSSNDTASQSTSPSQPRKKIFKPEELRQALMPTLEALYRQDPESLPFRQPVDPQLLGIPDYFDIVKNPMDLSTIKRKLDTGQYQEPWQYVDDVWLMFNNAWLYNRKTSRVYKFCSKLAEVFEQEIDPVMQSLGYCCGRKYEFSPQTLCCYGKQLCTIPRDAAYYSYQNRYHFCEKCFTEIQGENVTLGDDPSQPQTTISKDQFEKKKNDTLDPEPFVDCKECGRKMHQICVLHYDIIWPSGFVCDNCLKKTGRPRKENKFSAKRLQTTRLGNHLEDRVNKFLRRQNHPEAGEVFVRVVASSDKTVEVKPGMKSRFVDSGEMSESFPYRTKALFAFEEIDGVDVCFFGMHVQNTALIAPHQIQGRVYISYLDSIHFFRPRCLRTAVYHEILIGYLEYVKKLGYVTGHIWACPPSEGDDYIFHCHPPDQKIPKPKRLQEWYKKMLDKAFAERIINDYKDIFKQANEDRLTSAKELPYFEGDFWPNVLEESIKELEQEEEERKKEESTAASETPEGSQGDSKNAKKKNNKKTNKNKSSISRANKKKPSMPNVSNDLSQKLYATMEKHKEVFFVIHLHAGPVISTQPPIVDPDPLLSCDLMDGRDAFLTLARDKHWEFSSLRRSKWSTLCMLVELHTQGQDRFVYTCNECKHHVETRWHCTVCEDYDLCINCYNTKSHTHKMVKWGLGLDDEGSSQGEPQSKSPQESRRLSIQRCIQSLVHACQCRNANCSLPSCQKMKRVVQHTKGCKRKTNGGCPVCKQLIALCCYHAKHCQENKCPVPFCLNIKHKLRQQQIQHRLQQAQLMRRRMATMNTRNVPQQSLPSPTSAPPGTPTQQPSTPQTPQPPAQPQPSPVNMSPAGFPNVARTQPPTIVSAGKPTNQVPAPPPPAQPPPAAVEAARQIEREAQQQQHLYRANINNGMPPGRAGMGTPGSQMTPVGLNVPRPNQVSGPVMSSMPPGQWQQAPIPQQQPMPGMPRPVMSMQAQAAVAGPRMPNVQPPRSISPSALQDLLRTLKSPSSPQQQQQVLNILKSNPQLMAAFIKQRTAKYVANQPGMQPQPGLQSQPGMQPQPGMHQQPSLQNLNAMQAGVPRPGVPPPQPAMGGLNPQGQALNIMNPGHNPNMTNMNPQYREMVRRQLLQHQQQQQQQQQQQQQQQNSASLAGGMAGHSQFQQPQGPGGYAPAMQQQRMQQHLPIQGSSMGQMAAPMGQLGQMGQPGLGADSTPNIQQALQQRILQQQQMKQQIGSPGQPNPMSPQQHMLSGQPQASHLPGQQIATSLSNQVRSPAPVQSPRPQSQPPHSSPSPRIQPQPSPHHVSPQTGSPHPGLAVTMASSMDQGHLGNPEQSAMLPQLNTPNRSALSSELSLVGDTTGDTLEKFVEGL
Protocol: as §1
D5 cells were then treated with forskolin or TPA for 10 minutes.

[3] = test system: somatostatin mRNA in D5 cells; assay: Northern blot of somatostatin mRNA in D5 cells; format: cell-based, rat; details: 4 hours
Text: In addition to cAMP, other stimuli such as the phorbol ester TPA can promote Ser133 phosphorylation of CREB; yet these stimuli are unable to induce target gene activation via CBP, reflecting either a block in CREB:CBP complex formation or in the subsequent recruitment of the transcriptional apparatus. To evaluate formation of CREB:CBP complexes in vivo, NIH 3T3 cells expressing chromosomal copies of the rat somatostatin gene, hereafter referred to as D5 cells (Montminy et al. (1986) J Neurosci 6:803-813) were used. […] Western blot assays of total CREB and phospho (Ser133) CREB (P-CREB) levels were performed in control (C) or treated D5 cells exposed to either forskolin (F) or TPA (T) for 30 minutes. Northern blot assays were then performed to detect somatostatin (SOM) and tubulin (TUB) mRNA levels in control D5 cells (C) and in D5 cells treated with forskolin (F) or TPA (T) for 4 hours.

## CCCCCCCCCCCCCC(=O)O[C@@H]1[C@@H](C)[C@@]2(O)[C@@H](C=C(CO)C[C@]3(O)C(=O)C(C)=C[C@@H]23)[C@@H]2C(C)(C)[C@]12OC(C)=O [TPA, 12-O-tetradecanoyl phorbol acetate]
[1]; 10 minutes, immunofluorescence
  accumulation of phospho (Ser133) CREB: comparable levels of Ser133 phosphorylation
[1]; 30 minutes, Western blot with antiserum 5322
  Ser133 phosphorylation of CREB: induced Ser133 phosphorylation of CREB with comparable stoichiometry to forskolin induction
[2]
  CREB:CBP complex formation detected with αKK antiserum: no CREB:CBP complexes were detected
[3]
  somatostatin mRNA accumulation: no discernible effect

## C=C[C@@]1(C)CC(=O)[C@]2(O)[C@@]3(C)[C@@H](O)CCC(C)(C)[C@@H]3[C@H](O)[C@H](OC(C)=O)[C@@]2(C)O1 [forskolin]
[3]
  somatostatin mRNA accumulation: 5 fold
